Assay results: patent CN113018415A, “一种新的药物组合及其应用” (priority 2021, dated 2021)
Peptide text beside a SMILES is read from it. * marks the point of attachment. Cbz = O=C(OCc1ccccc1)*

How the values were obtained:
急性早幼粒白血病细胞NB4 [1] = experiment: MTT cell survival assay, NB4 cells; format: cell-based; conditions: 48 h; for Enhancement of the cancer cell inhibition of arsenic trioxide by a proteasome inhibitor: proteasome inhibitor fixed 40 nM combined with arsenic trioxide 0.1-0.5 μM, Fig. 6; for 细胞存活率 (cell survival rate): arsenic trioxide 0.1-0.5 μM, oprozomib 5-40 nM, alone or combined (fixed 40 nM oprozomib or fixed 0.4 μM arsenic trioxide), Fig. 1, 2
急性早幼粒白血病细胞NB4 [2] = experiment: Mouse APL model: HE staining of liver and spleen sections; format: in vivo, NOD/SCID小鼠; conditions: oprozomib 0.43 mg/kg iv, arsenic trioxide 1.53 mg/kg iv; compared with control group; Fig. 13
急性早幼粒白血病细胞NB4 [3] = experiment: Mouse APL model: CD33 immunohistochemistry of liver and spleen sections; format: in vivo, NOD/SCID小鼠; conditions: oprozomib 0.43 mg/kg iv, arsenic trioxide 1.53 mg/kg iv; compared with control group; Fig. 14
人结直肠腺癌细胞CaCo-2 = experiment: MTT cell survival assay, CaCo-2 cells; format: cell-based, 人; conditions: CaCo-2, MTT, 48 h; arsenic trioxide 0.4 μM, oprozomib 40 nM, alone or combined; Fig. 5
急性早幼粒白血病细胞NB4 [4] = experiment: Mouse APL model: flow cytometry of bone marrow cells for human CD33+; format: in vivo, NOD/SCID小鼠; conditions: moribund mice, bone marrow cultured 24 h; oprozomib 0.43 mg/kg iv, arsenic trioxide 1.53 mg/kg iv; compared with positive control; Fig. 8-12
急性早幼粒白血病细胞HL-60 = experiment: MTT cell survival assay, HL-60 cells; format: cell-based; conditions: HL-60, MTT, 48 h; arsenic trioxide 0.4-2 μM, oprozomib 40-200 nM, alone or combined (fixed 160 nM oprozomib or fixed 1.2 μM arsenic trioxide); Fig. 3, 4
慢性髓性白血病细胞K562 = experiment: MTT cell survival assay, K562 cells; format: cell-based; conditions: 48 h, arsenic trioxide 0.4 μM, oprozomib 40 nM, alone or combined, Fig. 5
人肝癌细胞SMMC-7721 = experiment: MTT cell survival assay, SMMC-7721 cells; format: cell-based, 人; conditions: SMMC-7721, MTT, 48 h; arsenic trioxide 0.4 μM, oprozomib 40 nM, alone or combined; Fig. 5

Row | SMILES | Enhancement of the cancer cell inhibition of arsenic trioxide by a proteasome inhibitor (急性早幼粒白血病细胞NB4 [1]) | Infiltrating tumour cells in liver and spleen (HE staining) (急性早幼粒白血病细胞NB4 [2]) | Human CD33 expression in liver and spleen sections (immunohistochemistry) (急性早幼粒白血病细胞NB4 [3]) | 细胞存活率 (cell survival rate) (人结直肠腺癌细胞CaCo-2) | Human CD33+ positive cells in mouse bone marrow (急性早幼粒白血病细胞NB4 [4]) | 细胞存活率 (cell survival rate) (急性早幼粒白血病细胞HL-60) | 细胞存活率 (cell survival rate) (急性早幼粒白血病细胞NB4 [1]) | 细胞存活率 (cell survival rate) (慢性髓性白血病细胞K562) | 细胞存活率 (cell survival rate) (人肝癌细胞SMMC-7721)
1 | CC(C)C[C@@H](C=O)NC(=O)[C@H](CC(C)C)NC(=O)[C@H](CC(C)C)NC(=O)OCc1ccccc1 [MG132] (Cbz-Leu-Leu-Leu-aldehyde) | 并不能增加三氧化二砷的癌细胞抑制效果 | – | – | – | – | – | – | – | –
2 | O=[As][As+](=O)[O-] (stereo not drawn) [三氧化二砷] | – | 略有减少但不明显 | 略有减少但不明显 | 无明显影响 | 有所减少 | 无明显影响 | 无明显影响 | 无明显影响 | 无明显影响
3 | COC[C@H](NC(=O)c1cnc(C)s1)C(=O)N[C@@H](COC)C(=O)N[C@@H](Cc1ccccc1)C(=O)[C@@]1(C)CO1 [奥普佐米] | 能极大地提升三氧化二砷的癌细胞抑制效果 | 略有减少但不明显 | 略有减少但不明显 | 无明显影响 | 有所减少 | 无明显影响 | 无明显影响 | 无明显影响 | 无明显影响
